| SMILES | melting point [°C] |
| --- | --- |
| COc1ccc(Cl)c(N)c1C(=O)CCl | 112 |
| O=C1NCN(c2ccccc2)C12CCN(CCCn1c(=O)[nH]c3ccccc31)CC2 | 228 |
| CC(C)(C)OC(=O)NCCCCn1cnc2c(Cl)nc3ccccc3c21 | 148 to 150 |
| CCc1ccccc1NC(=O)c1ccccc1SSc1ccccc1C(=O)Nc1ccccc1CC | 255 to 256 |
| CCCc1c(O)ccc2ccc(C(=O)OCC)cc12 | 114 to 115 |
| O=C(NC(c1ccccc1)c1cc2ccncc2[nH]1)c1cccnc1 (configuration not stated) | 178 to 188 |
| CC(C)=CCN(CC=C(C)C)Cc1noc(-c2ncn3c2[C@@H]2CCCN2C(=O)c2c(Cl)cccc2-3)n1 | 137 to 140 |
| CC(C)n1c(=O)n(C)c(=O)c2c(S(=O)CCCO)n(Cc3cccc4ccccc34)cc21 (configuration not stated) | 184 to 185 |
| CCN1C(=O)CN(C(=O)OCc2ccccc2)Cc2cc(OC)c([N+](=O)[O-])cc21 | 55 to 56 |
| O=C(NC(Cc1ccccc1)C(=O)O)c1ccc(-c2ccccc2OC2OC(CO)C(O)C(O)C2O)cc1 (configuration not stated) | 116 to 119 |
| COC(=O)c1ccc(C(=O)c2ccc(C)cc2)cc1 | 125 to 126 |
| CC1(C)CCC(C)(C)c2cc(C(=O)c3ccccc3C=O)ccc21 | 145 |
| Cc1cc(-c2nc3cccnn3c2-c2ccnc(NC(=O)NC3CCC(O)CC3)c2)ccc1F (configuration not stated) | 218 to 220 |
| C=C(C)c1cccc(C(C)(C)NSc2nc3ccccc3s2)c1 | 93 to 95 |
| CC12CCC3c4ccc(O)cc4C(O)C(Sc4ccc(Br)cc4)C3C1CCC2O (configuration not stated) | 140 to 145 |
| COC(=O)C=CC1=C(N)CCC1=O | 278 to 279 |
| CCCCC[C@H]1CC[C@H](c2ccc(Br)nn2)CC1 | 101 to 103 |
| Cc1c2c(c(Cc3ccc(C(C)C)cc3)c(C)c1NC(=O)NC(C)(C)C)OCC2 | 197 to 198 |
| COC(=O)c1cccc(-c2c(C#N)nn(-c3c(Cl)cc(C(F)(F)F)cc3Cl)c2N)c1 | 214 to 216 |
| COc1ccc(-c2ccc(C(=O)Nc3ccc4nc(CN5C(C)(C)CCCC5(C)C)ccc4c3)cc2)cc1 | 210 to 211 |
| COC(=O)c1c(C)nc2c(C)cc(C)cc2c1-c1ccccc1Cl | 119 to 120 |
| CS(=O)(=O)c1ccc(-c2cnn(-c3ccc(Oc4ccccc4)cc3)c(=O)c2-c2ccc(F)cc2)cc1 | 118 to 125 |
| CC(C)(C)CNC=Nc1ccc(-c2c[nH]cn2)cc1Br | 151 to 154 |
| COc1cccc(-c2cccc3c2C(=O)OC(C)(C)O3)n1 | 130 to 132 |
| CCOC(=O)c1cccc2nc(OCC)n(Cc3ccc(-c4ccccc4C#N)cc3)c12 | 131 to 132 |
| CCOC(=O)c1c(N=[N+]=[N-])[nH]c(=O)c(I)c1Oc1cc(C)cc(C)c1 | 216 to 218 |

| SMILES | melting point [°C] |
| --- | --- |
| CC(O)=C(C#N)C(=O)N1CCN(c2ccc(NC(=O)c3cnn(-c4ccc(F)cc4)c3C)cc2C#N)CC1 | 210 |
| N#Cc1ccc(-c2cn(-c3ccc(C#N)cc3)c(SCc3ccccn3)n2)cc1 | 164 to 170 |
| N#CN=C(Nc1cnc(Cl)c(N)c1)Oc1ccccc1 | 219 to 220 |
| CC(C)(C)OC(=O)NCCNC(=O)c1ncccc1Oc1ccccc1 | 97 to 98 |
| CC1=C2OC(C)(C)OC2CC(C)(C)C1=O (configuration not stated) | 79 to 80 |
| Cc1cc(NC(=O)C(C)(C)C)n(C)n1 | 86 to 88 |
| CC(C)(C)OC(=O)N1CCC(c2nc3cc(-c4ccc(S(C)(=O)=O)c(F)c4)ccc3o2)CC1 | 174 to 178 |
| CCCCCCc1nnc2n1-c1ccc(Cl)cc1C(c1ccccc1)=NC2 | 75 to 78 |
| CSC(=NC(=O)N(C)C)NC(=O)NC(C)(C)C | 74 to 78 |
| COCC#Cc1ccc(C(CC2CCCC2)C(=O)O)cc1 (configuration not stated) | 82 to 85 |
| O=C1CCC(c2ccc(-c3ccc(Cl)c(Cl)c3)o2)O1 (configuration not stated) | 89 to 90 |
| CCCCOc1ncc(I)cc1C(N)=O | 163 to 166 |
| COC(=O)c1ccccc1OCNC(=O)CCCCCNC(=O)OC(C)(C)C | 120 to 121 |
| COC(=O)c1ccc(Cc2cn(C)c3ccc(C(=O)O)cc23)c(OC)c1 | 249 to 251 |
| O=[N+]([O-])c1ccc(CCS(=O)(=O)NCc2ccccc2)cc1 | 125 to 127 |
| O=C1C=C(NC(=O)C(=O)c2cn(Cc3ccc(Cl)cc3)c3ccccc23)CO1 | 253 to 255 |
| NC(=O)NCCCCCCNC(N)=O | 197 to 200 |
| CCn1nc(OCCCc2ccc(OCCOC)cc2OCc2ccc(Cl)cc2Cl)cc1CCC(=O)O | 114 to 116 |
| COC(=O)C(Cc1ccc(C#N)cc1)C(=O)c1ccc(C#N)cc1 (configuration not stated) | 154 to 157 |
| O=C(c1cccnc1)N1CCC(c2ccccc2F)=N1 | 89 to 91 |
| CC(C)(O)CNc1c([N+](=O)[O-])cnc2cccnc12 | 184 to 186 |
| CC(c1ccccc1)C(C)([N+](=O)[O-])[N+](=O)[O-] (configuration not stated) | 76 to 78 |
| Cc1c2c(cn1CC(N)=O)CN=C(c1ccccc1Cl)c1cc(Cl)ccc1-2 | 142 to 145 |
| COCCOc1cc2ncc(C#N)c(Nc3cc(OC)c(Cl)cc3Cl)c2cc1OC | 210 to 212 |
| OCCCc1conc1-c1ccc(F)c(Br)c1 | 40 to 41 |

More lines, now with the values ahead:

| melting point [°C] | SMILES |
| --- | --- |
| 87.2 | O=S(=O)(Cl)c1cc2c(Br)cccc2o1 |
| 119 to 121 | CCOC(=O)c1ccc2c(c1)C(=O)N(C1CC(C)(C)N(C(C)=O)C(C)(C)C1)C2=O |
| 245 | Cc1cc(-c2cnn3c(C(F)(F)F)cc(-c4ccc(C(F)(F)F)c(OCC(F)(F)F)c4)nc23)cc(C)n1 |
| 127 to 128 | COc1ccc(CNc2ccc(F)c(Cl)c2)cc1OC |
| 160 to 164 | COc1c(Cc2c[nH]c3cccc(C(=O)O)c23)[nH]c(=O)c(CC(C)C)[n+]1[O-] |
| 129 to 130 | COC(=O)Cc1cccc(NCCCBr)c1 |
| 85 to 87 | Nc1ccc(C2CCc3ccccc3O2)cc1 (configuration not stated) |
| 127 to 130 | CC(C)(C)OC(=O)N[C@@H](C(=O)O)C1(C)CCCCC1 |
| 84 to 86 | FCc1cccc(C#CCCn2ncc(-c3ccc(F)cc3)n2)n1 |
| 184 to 185 | CCCCOc1c(C(=O)O)n(CC(C)(C)C)c(=O)c2cc(F)ccc12 |
| 186 to 188 | Cc1cccc(-c2cncc(Nc3ccc(Cl)cc3)n2)n1 |
| 74 to 76 | C1COCCNCCSCCN1 |
| 162 to 166 | Cc1c(CN2CCc3c(c4cccc(F)c4n3C)C2=O)ncn1S(=O)(=O)N(C)C |
| 265 to 267 | O=C1CCC(N2Cc3cc(CNC(=O)NC4CCCCC4)ccc3C2=O)C(=O)N1 (configuration not stated) |
| 146 | COc1n[nH]c(=O)n1C |
| 57 to 60 | CNC(=S)[C@]1(c2cccnc2)CCCC[C@H]1NOCc1c(F)c(F)c(F)c(F)c1F |
| 175 to 176 | CCOCc1nc2c(N)nc3ccc(CCc4ccccc4)cc3c2n1CC(C)(C)O |
| 81 to 83 | COc1ccc(NC(=O)CN2CCC(Cc3ccccc3)CC2)cc1 |
| 130 | N#Cc1ccc(OCc2ccccc2)cc1O |
| 141 to 142 | NC(CC1CCCCC1)C(O)C(O)C1CC1 (configuration not stated) |
| 114 to 116 | COc1ccc(C#N)nc1C |
| 102 to 105 | Cc1nnc(SCC(=O)C23CC4CC(CC(C4)C2)C3)s1 |
| 183 | C=C(Cl)CC1(C)Cc2cc(O)c(Cl)c(Cl)c2C1=O (configuration not stated) |
| 99 to 107 | c1ccc(C2OC3(CCNCC3)c3ccccc32)cc1 (configuration not stated) |
| > 250 | Cc1c2c(nn1Cc1ccccc1)c(N)nc1ccccc12 |
| 184 to 188 | COC(=N)c1ccc(-c2ccc([N+](=O)[O-])cc2)o1 |

| melting point [°C] | SMILES |
| --- | --- |
| 116 to 119 | O=c1cc(-c2ccccc2)oc2cc(OCC(O)CNCCCCc3cccnc3)ccc12 (configuration not stated) |
| 126 to 127 | Nc1ncc(CCCCc2ccccc2)c(N)n1 |
| 100 to 103 | CCCCCCCCCCCCCCOc1cccc(CC(=O)Nc2ccccc2CO)c1 |
| 127 to 128 | C=CCCn1cc(Br)cnc1=O |
| 138 to 140 | NC(=O)N(O)Cc1ccc(N2CCC(=O)CC2)cc1 |
| 243 to 245 | Cn1c(Cl)c(C(=O)O)c2ccc(Cl)cc21 |
| 229 | O=C(Nc1cccc(S(=O)(=O)NCc2ccccn2)c1)c1cnn2c(C(F)(F)F)cc(-c3ccc(C(F)(F)F)cc3)nc12 |
| 135 to 137 | CCC(Oc1cccc(C(F)(F)F)c1)C(=O)OC1CC(O)C=C2C=CC(C)C(CCC3CC(O)CC(=O)O3)C21 (mixture of isomers) |
| 118 to 119 | CN(CC#CI)c1nc(CO)cs1 |
| 155 to 158 | Cc1nc(N2CCN(CC(C)C)C2=O)sc1C(=O)NCc1cnn(C)c1 |
| 213 to 215 | Cc1ccc(-c2cc(-c3ccc(F)cc3)c(C(=O)NCc3ccc(C(=O)NO)cc3)[nH]2)cc1 |
| 99 to 100 | CCOC(=O)c1cn(Cc2ccccc2)nc1OCc1ccc(OCc2nc(-c3ccccc3)oc2C)cc1 |
| 156 to 158 | CN(CCCc1ccccc1)[C@H]1CC[C@H](c2ccc(O)cc2)CC1 |
| 133 to 134 | CCOC(=O)C(C#N)c1ncccc1[N+](=O)[O-] (configuration not stated) |
| 120 to 124 | COc1cccc(C=CCN2CCc3nc(N)sc3CC2)c1 |
| 80 to 82 | c1csc(N2CCN(Cc3ccc4sccc4c3)CC2)n1 |
| 99 to 100 | COc1ccc(C2=NN(CCc3ccccc3)C(=O)[C@H]3CCCC[C@@H]23)cc1OC (relative stereo) |
| 55 to 58 | CC(C)CCc1c(-c2ccc(S(C)(=O)=O)cc2)cnn(-c2ccc(F)c(F)c2)c1=O |
| 116 to 120 | CCOC(=O)c1c(C(F)(F)F)oc2ccc(C(F)(F)F)cc2c1=O |
| 115 to 117 | CCOC(=O)[C@H](Cc1ccc(-c2c(OC)cc(CCO)cc2OC)cc1)NC(=O)c1c(F)cccc1F |
| 178 | C=CCOC(=O)c1ccc(-c2nn(-c3ccc(C(=O)ON4C(=O)CCC4=O)cc3)c3ccccc23)cc1 |
| 170 to 171 | O=S(=O)(c1cccs1)N(CCO)c1cccc2cc(-c3nccs3)[nH]c12 |
| 91 | O=Cc1cc2n(n1)CCOC2 |
| > 300 | CCn1ncc2c1ncc1c(=O)[nH]c3nc(SC)nn3c12 |
| 142 to 145 | COC(=O)N1CC=C(c2ccc(N3C[C@H](CNC(C)=O)OC3=O)cc2)CC1 |

From a melting point compilation (Tetko et al.; mined from patent text by program, amines drawn as free bases though some values may be those of a salt)
